Entries after “also recorded” stand apart in the source; their conditions may differ. * marks the point of attachment. Boc = CC(C)(C)OC(=O)*
B1: Wnt5a: Recombinant Human/Mouse Wnt-5a Protein, CHO-derived (Gln38-Lys380), R&D systems 645-WN (protein)
chain: QVVIEANSWWSLGMNNPVQMSEVYIIGAQPLCSQLAGLSQGQKKLCHLYQDHMQYIGEGAKTGIKECQYQFRHRRWNCSTVDNTSVFGRVMQIGSRETAFTYAVSAAGVVNAMSRACREGELSTCGCSRAARPKDLPRDWLWGGCGDNIDYGYRFAKEFVDARERERIHAKGSYESARILMNLHNNEAGRRTVYNLADVACKCHGVSGSCSLKTCWLQLADFRKVGDALKEKYDSAAAMRLNSRGKLVQVNSRFNSPTTQDLVYIDPSPDYCVRNESTGSLGTQGRLCNKTSEGMDGCELMCCGRGYDQFKTVQTERCHCKFHWCCYVKCKKCTEIVDQFVCK

Legend:
[1] = system: ARPE-19 cells and hpRPE; assay: Apoptosis by Hoechst staining in RPE cells under UOS; type: cell-based, human; conditions: for apoptosis by UOS in the presence of the Wnt ligand: RPE cells under UOS with recombinant Wnt5a; for cell death by UOS on addition of Wnt5a: ARPE-19 cells and hpRPE under UOS, Wnt5a 50 ng/ml
Description: ARPE-19 cells, can be plated and grown in DMEM/F-12 containing 10% FBS and 1× penicillin/streptomycin at 37° C., 5% CO2, 99% relative humidity for 24 h. […] 15-LOX-1 deficient cells can be maintained in the same medium as ARPE-19 with the addition of 500 μg/mL Geneticin (Life Technologies Corporation, Carlsbad, Calif.). Transfection can be performed in all cases using Lipofectamine 2000 (Life Technologies Corporation, Carlsbad, Calif.) following the manufacturer's recommendations. […] Experiments with transfection efficiency that yielded less than 80% can be discarded. For siRNA, we used 6 μl of Lipofectamine 2000 per 50 pmol of siRNA per mL of incubation medium, and, for plasmids, we used 6 μl of Lipofectamine 2000 per 2 μg of plasmid per mL of incubation medium. Cells can be incubated for 5 hours at 37° C., 5% CO2 and 99% relative humidity. […] When siRNA/plasmid co-transfection is required, siRNA and plasmid-carrying transfection mixes can be prepared separately and added one after the other in the same well. Oxidative stress treatments can be performed using 600 (ARPE-19) or 1600 (hRPE) μM H2O2, along with 10 ng/mL TNFα, for the required time indicated in each experiment. The treatment we used employed the low serum (0.5% serum) without hFGF. Treatment to induce uncompensated oxidative stress (UOS) can be performed after 8 hours of low-serum medium incubation unless specifically noted. Wnt5a, Wnt3a or NPD1 can be added immediately before induction of UOS. In the secretion experiments, Pitstop 2 can be added to the medium 2 hours before harvesting.
(§1) Immunostaining can be performed in 8-well slide chambers and the Hoechst staining in 24-well plates. […] Briefly, cells can be fixed using 4% paraformaldehyde in PBS 1× for 20 min at room temperature or overnight at 4° C. After three washes with PBS, cells can be permeabilized using 0.1% Triton™ X-100 for five minutes and blocked using 10% normal serum and 1% BSA for one hour. […] Hoechst staining can be performed using same protocol of fixation. In one embodiment, permeabilization is done using methanol for 20 min at room temperature. […] Dying cells can be identified by size (0 to 50 pixels), intensity threshold, and circularity. The ratio of hyperpyknotic cells over the total can be calculated for nine randomly chosen fields per sample obtained from three independent wells per experiment. Each experiment can be repeated at least three times to confirm the findings.
ARPE-19 cells, were plated and grown in DMEM/F-12 containing 10% FBS and 1× penicillin/streptomycin at 37° C., 5% CO2, 99% relative humidity for 24 h. […] 15-LOX-1 deficient cells were maintained in the same medium as ARPE-19 with the addition of 500 μg/mL Geneticin (Life Technologies Corporation). Transfection was performed in all cases using Lipofectamine 2000 (Life Technologies Corporation) following the manufacturer's recommendations. […] Experiments with transfection efficiency that yielded less than 80% were discarded. For siRNA, we used 6 μl of Lipofectamine 2000 per 50 pmol of siRNA per mL of incubation medium, and, for plasmids, we used 6 μl of Lipofectamine 2000 per 2 μg of plasmid per mL of incubation medium. Cells were incubated for 5 hours at 37° C., 5% CO2 and 99% relative humidity. […] When siRNA/plasmid co-transfection was required, siRNA and plasmid-carrying transfection mixes were prepared separately and added one after the other in the same well. […] The treatment we used employed the low serum (0.5% serum) without hFGF. Treatment to induce uncompensated oxidative stress (UOS) was performed after 8 hours of low-serum medium incubation unless specifically noted. Wnt5a, Wnt3a or NPD1 was added immediately before induction of UOS.

[2] = system: Wnt5a/FZD5; assay: Immunocytochemistry of Wnt5a/FZD5 colocalization and vesicles in hpRPE cells; type: cell-based, human; conditions: for size of FZD5/Wnt5a vesicles: Wnt5a added; for size of FZD5/Wnt5a vesicles / vesicle load (mean intensity per vesicle) / intensity and number of Wnt5a-positive vesicles / number of FZD5-positive vesicles: IMARIS; for vesicle load (mean intensity per vesicle): external Wnt5a added; for number of Wnt5a/FZD5 colocalized vesicles per field: UOS 1600 μM H2O2, 2 hours, +/− 50 ng/ml Wnt5a, no Pitstop2
Description: To ascertain localization and interaction between FZD5 and Wnt5a we incubated hpRPE undergoing UOS with Wnt5a+/−NPD1 or other lipid mediators.
as §1
In an embodiment involving early stages of apoptosis, the total number of cells per field is assessed and counted to ensure unbiased observations. […] Settings can be adjusted in the conditions that show higher intensity and can be used throughout the remaining samples. In an embodiment, Pearson's colocalization coefficient (PCC) is obtained using FV1200 analysis software for every field in each experiment, and the mean and SEM are depicted in FIGS. 7-11.
Immunostaining was performed in 8-well slide chambers and the Hoechst staining in 24 well plates. […] Briefly, cells were fixed using 4% paraformaldehyde in PBS 1× for 20 min at room temperature or overnight at 4° C. After three washes with PBS, cells were permeabilized using 0.1% Triton™ X-100 for five minutes and blocked using 10% normal serum and 1% BSA for one hour. […] Hoechst staining was performed using same protocol of fixation, but permeabilization was done using methanol for 20 min at room temperature. […] Dying cells were identified by size (0 to 50 pixels), intensity threshold and circularity. The ratio of hyperpyknotic cells over the total was calculated for nine randomly chosen fields per sample obtained from three independent wells per experiment. Each experiment was repeated at least three times to confirm the findings. In the experiments involving early stages of apoptosis, we assessed the total number of cells per field and counted them to ensure unbiased observations. […] Pearson's colocalization coefficient (PCC) was obtained using FV1200 analysis software for every field in each experiment, and the mean and SEM are depicted in Figures S1-S5. […] IMARIS software analysis was performed building a colocalization channel using the Costes thresholding, and the colocalized elements were analyzed using the spots function using the settings different spots sites, background subtraction and local contrast. The output obtained consisted on a collection of sizes (one per element in each picture) or the mean of the intensity in each spot.

| Molecule | UOS-dependent NFkB activation and apoptosis (FIG. 18B legend) [1] | apoptosis by UOS in the presence of the Wnt ligand ([1]; Hoechst staining) | size of FZD5/Wnt5a vesicles ([2]; hpRPE under UOS) | mode of Wnt5a and FZD5 signal intensity ([2]; hpRPE under UOS, absence of rWnt5a) | vesicle load (mean intensity per vesicle) ([2]; hpRPE under UOS) | intensity and number of Wnt5a-positive vesicles ([2]; hpRPE under UOS) | number of FZD5-positive vesicles ([2]; hpRPE under UOS) | number of Wnt5a/FZD5 colocalized vesicles per field ([2]; hpRPE) | quantity of large only-Wnt5a positive spots ([2]; hpRPE, absence of Wnt5a) | apoptosis in cells only exposed to UOS ([1]; no Wnt5a added, Hoechst staining) | cell death by UOS on addition of Wnt5a [1] | cell death by UOS on addition of Wnt5a ([1]; listed as Recombinant Wnt5a) | effect of Wnt5a alone on RPE cells (apoptosis) ([1]; resting cells, no UOS) |
| --- | --- | --- | --- | --- | --- | --- | --- | --- | --- | --- | --- | --- | --- |
| CC/C=C\C[C@H](O)\C=C/C=C/C=C/[C@H](O)C/C=C\C/C=C\CCC(=O)O [NPD1, 10R,17S-dihydroxy-docosa-4Z,7Z,11E,13E,15Z,19Z-hexaenoic acid] | counteracted these effects | blocked apoptosis; also recorded: hindered apoptosis | Neither NPD1 nor Box5 affected the magnitude of the Wnt5a effect | restore both modes to control levels | higher Wnt5a/FZD5 and FZD5/Clathrin vesicle intensity when Wnt5a was added | difference in mean intensity distribution | decrease the number of FZD5-positive vesicles | brought down the number of vesicles per field; also recorded: had the same effect; also recorded: decreased the amount of vesicles per field | increased | – | – | – | – |
| t-Boc-NH-Met-Asp-Gly-Cys-Glu-Leu-CO2H (Boc-MDGCEL-OH) [Box5] | – | blocked apoptosis; also recorded: hindered apoptosis | Neither NPD1 nor Box5 affected the magnitude of the Wnt5a effect | – | did not affected vesicle loads that showed FZD5/clathrin or Wnt5a/clathrin signal | did not modify the increase in intensity and number induced by UOS | decrease the number of FZD5-positive vesicles | decreased Wnt5a induction | – | decreased apoptosis; also recorded: prevented cell death | – | – | – |
| B1 | – | – | – | – | – | – | – | increased the number of vesicles that co-localize with FZD5 | – | – | enhanced cell death triggered by H2O2; also recorded: enhances the percentage of cell death induced by UOS | potentiated cell death by UOS | no effect |
